Laboratory results taken from patent US20240131032A1, “AN ACTIVITY-GUIDED MAP OF ELECTROPHILE-CYSTEINE INTERACTIONS IN PRIMARY HUMAN IMMUNE CELLS” (The Scripps Research Institute, priority 2019, published 2024).

Legend:
ERCC3 = biological target: T1, ERCC3 (Homo sapiens, UniProt P19447); assay: isoTOP-ABPP and TMT-ABPP cysteine engagement, ERCC3; type: binding
T1 construct: endogenous in cells; host or cells: primary human T cells
T1 sequence (P19447 1-782): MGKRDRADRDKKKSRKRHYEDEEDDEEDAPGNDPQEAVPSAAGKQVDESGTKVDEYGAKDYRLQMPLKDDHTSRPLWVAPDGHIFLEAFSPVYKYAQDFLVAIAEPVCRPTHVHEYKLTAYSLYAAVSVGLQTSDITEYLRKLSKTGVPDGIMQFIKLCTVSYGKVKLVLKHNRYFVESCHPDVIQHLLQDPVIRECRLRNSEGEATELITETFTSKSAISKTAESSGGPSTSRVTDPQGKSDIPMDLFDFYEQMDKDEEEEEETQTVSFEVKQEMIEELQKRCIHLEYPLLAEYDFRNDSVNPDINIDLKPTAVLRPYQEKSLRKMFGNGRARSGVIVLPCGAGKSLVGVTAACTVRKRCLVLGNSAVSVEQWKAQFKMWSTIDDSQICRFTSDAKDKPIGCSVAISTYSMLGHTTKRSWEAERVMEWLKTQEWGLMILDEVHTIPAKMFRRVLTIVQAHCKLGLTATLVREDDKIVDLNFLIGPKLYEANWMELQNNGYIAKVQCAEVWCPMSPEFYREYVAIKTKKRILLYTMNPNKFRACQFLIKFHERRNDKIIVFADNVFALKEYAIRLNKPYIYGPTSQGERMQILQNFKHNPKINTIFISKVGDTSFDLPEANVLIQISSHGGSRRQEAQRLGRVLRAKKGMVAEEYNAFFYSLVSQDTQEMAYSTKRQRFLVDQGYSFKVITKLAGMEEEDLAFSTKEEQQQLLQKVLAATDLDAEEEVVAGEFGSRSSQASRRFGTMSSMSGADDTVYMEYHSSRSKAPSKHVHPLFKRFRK
Protocol: (§1) Activated or expanded T cells were re-suspended in RPMI media supplemented with 10% FBS, L-glutamine (2 mM), penicillin (100 U/mL), and streptomycin (100 μg/mL) at 2×10^6 cells/mL. The compounds were added to cells as 1000×DMSO stocks and mixed well with the media by pipetting up and down after addition. The cells were kept at 37° C. in 5% CO2 containing incubators for 3 h (or otherwise specified times), then pelleted by centrifugation (524 g, 5 min, 4° C.), washed with cold PBS (10 mL) and transferred to Eppendorf tubes (1 mL PBS). The cells were pelleted again (524 g, 5 min, 4° C.), flash-frozen, and kept at −80° C. until further analysis.
Activated or expanded primary human T cells were re-suspended in RPMI (1×10^6 cells/mL) containing 10% fetal bovine serum (FBS), penicillin (100 U/mL), streptomycin ([…]), and L-glutamine (2 mM). The cells were treated with DMSO or compounds for 3 h, pelleted (524 g, 5 min), washed with PBS, and lysed by sonication (2×8 pulses). Soluble and particulate proteomic fractions were separated by ultracentrifugation (100,000 g, 45 min), and protein concentration was normalized to 1.7 mg/mL using a standard DC protein assay (Bio-Rad). The resulting proteomes were analyzed by competitive isotopic Tandem Orthogonal Proteolysis Activity-Based Protein Profiling (isoTOP-ABPP).
Samples (500 μL, 1.7 mg/mL) were treated with iodoacetamide alkyne (IA-alkyne, 5 μL of 10 mM stock in DMSO, final concentration: 100 μM) for 1 h at ambient temperature. Modified proteins were then conjugated to isotopically labeled, TEV-cleavable biotin tags (TEV-tags) using copper-catalyzed azide-alkyne cycloaddition reaction (CuAAC). Reagents for the CuAAC reaction were pre-mixed prior to their addition to the proteome samples. […]
The heavy/light isoTOP-ABPP ratios (R values) for each unique peptide (DMSO/compound treated) were quantified with in-house CIMAGE software (Weerapana et al., 2010) using default parameters (3 MS1 acquisitions per peak and signal to noise threshold set to 2.5). Site-specific engagement of cysteine residues was assessed by blockade of IA-alkyne probe labeling. […] Ratios for unique peptide sequences were calculated for each experiment; overlapping peptides with the same modified cysteine (e.g., different charge states, elution times or tryptic termini) were grouped together and the median ratio was reported as the final ratio (R). […]

TMEM173 = biological target: T2, TMEM173 (Homo sapiens, UniProt Q86WV6); assay: isoTOP-ABPP and TMT-ABPP cysteine engagement, TMEM173; type: binding
T2 construct: endogenous in cells; host or cells: primary human T cells
T2 sequence (Q86WV6 whole entry H232R): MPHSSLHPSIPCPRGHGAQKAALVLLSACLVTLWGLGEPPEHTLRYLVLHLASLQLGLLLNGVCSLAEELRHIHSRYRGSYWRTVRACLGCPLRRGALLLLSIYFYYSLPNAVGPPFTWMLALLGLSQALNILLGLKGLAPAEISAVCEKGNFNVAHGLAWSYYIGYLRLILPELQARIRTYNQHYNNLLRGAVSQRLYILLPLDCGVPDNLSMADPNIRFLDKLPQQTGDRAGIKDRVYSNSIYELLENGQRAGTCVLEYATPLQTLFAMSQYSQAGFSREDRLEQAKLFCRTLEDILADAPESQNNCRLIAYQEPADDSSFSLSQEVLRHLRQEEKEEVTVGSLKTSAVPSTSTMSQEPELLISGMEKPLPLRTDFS
Protocol: as §1
Activated or expanded primary human T cells were re-suspended in RPMI (1×10^6 cells/mL) containing 10% fetal bovine serum (FBS), penicillin (100 U/mL), streptomycin ([…]), and L-glutamine (2 mM). […] The resulting proteomes were analyzed by competitive isotopic Tandem Orthogonal Proteolysis Activity-Based Protein Profiling (isoTOP-ABPP). […]
The heavy/light isoTOP-ABPP ratios (R values) for each unique peptide (DMSO/compound treated) were quantified with in-house CIMAGE software (Weerapana et al., 2010) using default parameters (3 MS1 acquisitions per peak and signal to noise threshold set to 2.5). Site-specific engagement of cysteine residues was assessed by blockade of IA-alkyne probe labeling. […]

Row | Compound | engagement of C342 of ERCC3 (ERCC3) | labeling of C91 of TMEM173 (TMEM173) | efficacy at ERCC3 C342, BPK-21 with respect to BPK-25 (ERCC3)
1 | C=CC(=O)N(Cc1cccc(Cl)n1)c1ccc(C(=O)Nc2ccccc2)nc1 [BPK-25] | alkylating C342 | direct labeling of C91 | 
2 | C=CC(=O)N(Cc1cccc(Cl)c1Cl)c1ccc(Oc2ccccc2)c(C(F)(F)F)c1 [BPK-21] | alkylating C342 | direct labeling of C91 | higher efficacy
